Reference: US9695219B2, “Polypeptide having antibacterial activity and angiogenesis-inducing activity and wound-healing drug containing said polypeptide” (priority 2009, dated 2017)
≈ marks a conversion by molar mass, not a printed value. Where two headings read alike, the source gives them in different places. Where no end group is shown, it is not given here.

What was measured:
[1] = system: Pseudomonas aeruginosa (clinical strain 6); experiment: MIC measurement, broth microdilution; format: cell-based; conditions: Pseudomonas aeruginosa; 37° C. for 20 hours; tested twice, first/second value where not matched
[2] = system: MRSA (clinical strain 1); experiment: microbe, parasite or virus in culture; format: cell-based; conditions: Staphylococcus aureus, 37° C. for 20 hours, tested twice, first/second value where not matched
Protocol: (§1) Further, with respect to not only the above-described strains but also various other strains, the “minimum inhibitory concentration (MIC)” was measured as follows. MIC is the lowest concentration of an agent that may inhibit the growth of a bacterium. MIC is used as a parameter for the efficacy of an antibacterial agent, for the strength of bacterial sensitivity, or the like. The bacteria can grow (proliferate) when the concentration is not higher than MIC, and cannot grow when the concentration is higher than MIC. Its measurement is carried out according to a method defined as a standard method by Japanese Society of Chemotherapy or CLINICAL AND LABORATORY […] (CLSI), but, in this Example, its measurement was carried out by a broth microdilution method in accordance with “M100-S17/M7-A7” (Performance Standards for Antimicrobial Susceptibility Testing; Seventeenth Informational Supplement, Vol. 27 No. 1) published by CLSI on January, 2007. That is, sensitivity test of agents was carried out using a microtiter plate or test tubes.
(§2) The bacteria were cultured in liquid media for 4 to 6 hours, and thereafter absorbances at A600 were measured. Bacterial suspensions were diluted with Mueller-Hinton broth (MHB) according to McFarland #0.5. Each strain was added so as to attain about 10^5 CFU/ml (final concentration). Each peptide was prepared to an optional concentration, and the solutions were serially diluted from the concentration. The polypeptide at each concentration stage was added to a microplate or test tubes, and the bacterial suspension was added thereto. Chloramphenicol, amphotericin B, ciprofloxacin, meropenem (MEPM), ciprofloxacin (CPFX), tobramycin (TOB) and oxacillin (OX) were used as positive controls. The plate was incubated at 37° C. for 20 hours, and the lowest concentration where bacterial growth was inhibited was regarded as the minimum inhibitory concentration.

[3] = system: MRSA (clinical strain 2); experiment: microbe, parasite or virus in culture; format: cell-based, Staphylococcus aureus; conditions: 37° C. for 20 hours, tested twice, first/second value where not matched
Protocol: as §1, §2

[4] = system: MSSA (clinical strain 1); experiment: microbe, parasite or virus in culture; format: cell-based, Staphylococcus aureus; conditions: Staphylococcus aureus, MSSA; 37° C. for 20 hours; tested twice, first/second value where not matched
Protocol: as §1, §2

[5] = system: MSSA (clinical strain 2); experiment: microbe, parasite or virus in culture; format: cell-based, Staphylococcus aureus; conditions: 37° C. for 20 hours, tested twice, first/second value where not matched
Protocol: as §1, §2

[6] = system: Enterobacter cloacae JCM 1232; experiment: Antibacterial activity, ATP assay (BacTiter-Glo); format: cell-based
Protocol: (§3) The antibacterial activity of each of SR-08 and SR-07 polypeptides was measured using an ATP assay method. That is, using BacTiter-Glo Microbial Cell Viability Assay kit available from PROMEGA, the antibacterial activity of the peptides was evaluated from the viability of bacteria. In other words, ATP amount in viable bacteria in cases where the concentration of the peptides was 10 μg/mL was measured using a microtiter plate or test tubes. As controls, tobramycin (TOB), oxacillin (OX) and meropenem (MEPM) were used at the concentrations as respectively shown in Table 6 below.
(§4) With respect to the strains, Escherichia coli: ATCC 25922 (Escherichia coli ATCC 25922), Pseudomonas aeruginosa: ATCC 27853 (Pseudomonas aeruginosa ATCC 27853), Staphylococcus aureus: ATCC29213 (Staphylococcus aureus ATCC29213), Klebsiella pneumoniae: JCM 1662 (Klebsiella pneumoniae JCM 1662), enterobacteria (1): JCM 1232 (Enterobacter cloacae JCM 1232), and enterobacteria (2): JCM 1235 (Enterobacter aerogenes JCM 1235), were used.
(§5) The bacteria were cultured in media for 3 to 4 hours, and thereafter absorbances at A600 were measured. Bacterial suspensions were diluted with Mueller-Hinton broth (MHB) according to McFarland #0.5. Each strain was added so as to attain about 0.5-1×10^5 CFU/mL (final concentration) in terms of Escherichia coli. Each peptide was prepared and added to a microplate or test tubes so as to attain a final concentration of 10 μg/mL, and the bacterial suspension was added thereto. The plate was incubated at 37° C. for 3 hours, and the amount of ATP in the culture media was measured. Relative values were calculated by comparison with the negative control, and these values were regarded as the viability.

[7] = system: Escherichia coli ATCC 25922; experiment: Antibacterial activity, ATP assay (BacTiter-Glo); format: cell-based
Protocol: as §3, §4, §5

[8] = system: Klebsiella pneumoniae JCM 1662; experiment: Antibacterial activity, ATP assay (BacTiter-Glo); format: cell-based
Protocol: as §3, §4, §5

[9] = system: Enterobacter aerogenes JCM 1235; experiment: Antibacterial activity, ATP assay (BacTiter-Glo); format: cell-based
Protocol: as §3, §4, §5

[10] = system: Pseudomonas aeruginosa (clinical strain 8); experiment: MIC measurement, broth microdilution; format: cell-based; conditions: Pseudomonas aeruginosa; 37° C. for 20 hours; tested twice, first/second value where not matched
[11] = system: Pseudomonas aeruginosa ATCC 27853; experiment: Antibacterial activity, ATP assay (BacTiter-Glo); format: cell-based
Protocol: (§6) The antibacterial activity of the polypeptides was measured using an ATP assay method. Using BacTiter-Glo Microbial Cell Viability Assay kit available from PROMEGA, the antibacterial activity of the peptides was evaluated from the viability of bacteria. […] With respect to the strains, Staphylococcus aureus ATCC29213 (S. aureus ATCC29213) as Gram-positive bacteria, or, alternatively, Pseudomonas aeruginosa (P. aeruginosa ATCC27853) as Gram-negative bacteria, was used. The bacteria were cultured in media for 3 to 4 hours, and thereafter absorbances at A600 were measured. Bacterial suspensions were diluted with Mueller-Hinton broth (MHB) according to McFarland #0.5. […] A solution to which the peptides were not added was considered as a negative control, and a solution to which tobramycin (TOB) was added was considered as a positive control. The plate was incubated at 37° C. for 3 hours, and the amount of ATP in the culture media was measured. Relative values were calculated by comparison with the negative control, and these values were regarded as the viability. The antibacterial activity of each of SR-08 and SR-07 polypeptides was measured using an ATP assay method. That is, using BacTiter-Glo Microbial Cell Viability Assay kit available from PROMEGA, the antibacterial activity of the peptides was evaluated from the viability of bacteria. […] As controls, tobramycin (TOB), oxacillin (OX) and meropenem (MEPM) were used at the concentrations as respectively shown in Table 6 below. With respect to the strains, Escherichia coli: ATCC 25922 (Escherichia coli ATCC 25922), Pseudomonas aeruginosa: ATCC 27853 (Pseudomonas aeruginosa ATCC 27853), Staphylococcus aureus: ATCC29213 (Staphylococcus aureus ATCC29213), Klebsiella pneumoniae: JCM 1662 (Klebsiella pneumoniae JCM 1662), enterobacteria (1): […] JCM 1235 (Enterobacter aerogenes JCM 1235), were used. The bacteria were cultured in media for 3 to 4 hours, and thereafter absorbances at A600 were measured. Bacterial suspensions were diluted with Mueller-Hinton broth (MHB) according to McFarland #0.5. […] The plate was incubated at 37° C. for 3 hours, and the amount of ATP in the culture media was measured. Relative values were calculated by comparison with the negative control, and these values were regarded as the viability.

[12] = system: Staphylococcus aureus ATCC29213; experiment: Antibacterial activity, ATP assay (BacTiter-Glo); format: cell-based
Protocol: as §6

[13] = system: Pseudomonas aeruginosa (clinical strain 12); experiment: MIC measurement, broth microdilution; format: cell-based; conditions: Pseudomonas aeruginosa; 37° C. for 20 hours; tested twice, first/second value where not matched
[14] = system: Pseudomonas aeruginosa (clinical strain 1); experiment: microbe, parasite or virus in culture; format: cell-based; conditions: Pseudomonas aeruginosa; 37° C. for 20 hours; tested twice, first/second value where not matched
[15] = system: Pseudomonas aeruginosa (clinical strain 9); experiment: MIC measurement, broth microdilution; format: cell-based; conditions: Pseudomonas aeruginosa; 37° C. for 20 hours; tested twice, first/second value where not matched
[16] = system: Staphylococcus epidermidis; experiment: MIC measurement, broth microdilution; format: cell-based; conditions: Staphylococcus epidermidis; 37° C. for 20 hours; tested twice, first/second value where not matched
Protocol: as §1, §2

[17] = system: human vascular endothelial cells and fibroblast cells; format: cell-based; conditions: polypeptide 10 μg/mL, Day 11 of culture
Protocol: Using AG30-5C as a positive control, the angiogenesis-inducing activity of SR-1 and SR-2 was measured. More concretely, using an angiogenesis kit (Angiogenesis Kit, KZ-1000, KURABO […] LTD.), the ability of the polypeptides to form lumina was evaluated. As a negative control, polypeptide-free group (Control) was used.
Each polypeptide was added to a special medium for angiogenesis (KURABO […] LTD., KZ-1500) such that the concentration thereof was 10 μg/mL. Cells were cultured at 37° C. under 5% CO2 in a 24-well plate using the special media to which the polypeptide was added. The medium was replaced with a medium containing the same polypeptide on Day 4, Day 7 and Day 9 of culture. On Day 11 from the beginning of the culture, the medium was removed and staining was performed using a kit for staining lumina (for CD31 antibody staining) according to the following procedure.
The primary antibody (mouse anti-human CD31 antibody) was 4000-fold diluted with a blocking solution (Dulbecco's phosphate buffered saline (PBS(−)) containing 1% BSA). To each well, 0.5 mL of this primary antibody solution was added, and the plate was incubated for 60 minutes at 37° C. After the completion of the incubation, each well was washed totally 3 times with 1 mL of the blocking solution.
Then, 0.5 mL of a secondary antibody solution (goat anti-mouse IgG/alkaline phosphatase conjugate) 500-fold diluted with the blocking solution was added to each well. The plate was incubated for 60 minutes at 37° C., and thereafter each well was washed 3 times with 1 mL of distilled water. During that period, 2 tablets of BCIP/NBT were dissolved into distilled water, and the obtained solution was filtered through a filter having a pore size of 0.2 μm to prepare a substrate solution. To each well, 0.5 mL of the prepared BCIP/NBT substrate solution was added, and the plate was incubated at 37° C. until the lumina turned to deep purple (typically for 5-10 minutes). After the completion of the incubation, each well was washed 3 times with 1 mL of distilled water. After washing, the washing solution was removed by aspiration, and the plate was left to stand and dry naturally. After drying, photographs of each well were taken under a microscope.
Each of the obtained images was quantified using an angiogenesis quantification software. Computer analysis was carried out on various parameters. And, on the basis of its scale, the lengths of formed lumina observed in each visual field were measured, and the effect of adding the polypeptides compared with Control was evaluated.

[18] = Table 7, mean values, peptides 10 μg/mL, TOB 4.0, OX 4.0, MEPM 0.5 μg/mL, 37° C. 3 hours, relative to negative control
[19] = Table 7, mean values, peptides 10 μg/mL, TOB 1.0, OX 1.0, MEPM 0.5 μg/mL, 37° C. 3 hours, relative to negative control
[20] = Table 5, peptides 10 μg/mL, 37° C. for 3 hours, ATP amount relative to negative control

C[C@@H](O)[C@H]1C(=O)N2C(C(=O)O)=C(S[C@@H]3CN[C@H](C(=O)N(C)C)C3)[C@H](C)[C@H]12 [MEPM, meropenem]
MIC [1]: 8 mg/L (≈ 20.9 µM)
MIC [2]: < 4 mg/L
MIC, MRSA (clinical strain 2) [3]: 8/16
MIC [4]: < 4 mg/L
MIC, MSSA (clinical strain 2) [5]: 4/8
viability at 0.5 µg/mL ([6]; Enterobacter cloacae, JCM1232, 3 h, read-out: Viability, Enterobacteria (1)): 3.8%
viability at 0.5 µg/mL ([7]; Escherichia coli, ATCC25922, 3 h, read-out: Viability, Escherichia coli): 12.4%
viability at 0.5 µg/mL ([8]; Klebsiella pneumoniae, JCM1662, 3 h, read-out: Viability, Klebsiella pneumoniae): 9.2%
viability at 0.5 µg/mL ([9]; Klebsiella aerogenes, JCM1235, 3 h, read-out: Viability, Enterobacteria (2)): 1.7%
MIC [10]: < 4 mg/L
viability at 0.5 µg/mL ([11]; Pseudomonas aeruginosa, ATCC27853, 3 h, read-out: Viability, Pseudomonas aeruginosa): 19.3%
viability at 0.5 µg/mL ([12]; Staphylococcus aureus, ATCC29213, 3 h, read-out: Viability, Staphylococcus aureus): 89.8%
MIC [13]: < 4 mg/L
MIC [14]: < 4 mg/L
MIC [15]: < 4 mg/L
MIC [16]: 0.03 to 0.12 mg/L (≈ 0.0782 to 0.313 µM)

NC[C@H]1O[C@H](O[C@H]2[C@H](O)[C@@H](O[C@H]3O[C@H](CO)[C@@H](O)[C@H](N)[C@H]3O)[C@H](N)C[C@@H]2N)[C@H](N)C[C@@H]1O [TOB, tobramycin]
MIC [1]: < 4 mg/L
MIC [2]: > 16 mg/L
MIC ([3]; Staphylococcus aureus, MRSA): > 16 mg/L
MIC [4]: < 4 mg/L
MIC ([5]; Staphylococcus aureus, MSSA): < 4 mg/L
Viability, Enterobacteria (1) [6, 18]: 2.9
Viability, Escherichia coli [7, 19]: 4.1
Viability, Klebsiella pneumoniae [8, 18]: 4.6
Viability, Enterobacteria (2) [9, 18]: 0.7
MIC [10]: < 4 mg/L
Viability (%) Pseudomonas aeruginosa [11, 20]: 1.8%
Viability, Pseudomonas aeruginosa [11, 19]: 1.5
Viability (%) Staphylococcus aureus [12, 20]: 3.5%
Viability, Staphylococcus aureus ([12]; Table 7, mean values, peptides 10 μg/mL, TOB 1.0, OX 0.125, MEPM 0.5 μg/mL, 37° C. 3 hours, relative to negative control): 3.4
MIC [13]: < 4 mg/L
MIC [14]: > 16 mg/L
MIC [15]: < 4 mg/L
MIC [16]: 0.12 to 1 mg/L (≈ 0.257 to 2.14 µM)

ARLDVASEFRKKWNKWALSR-amide (ARLDVASEFRKKWNKWALSR-NH2; listed as Homo sapiens) [PAMP]
The Length of Lumina (Percentage when taking Control as 100) ([17]; Table 4): 124.6%

ELRFLHRLKRRLRKRLKRKLR-NH2 [SR-2]
The Length of Lumina (Percentage when taking Control as 100) ([17]; Table 3): 124.6%

MLKLIFLHRLKRMRKRLKRK [SR-1]
The Length of Lumina (Percentage when taking Control as 100) ([17]; Table 3): 124.3%

MLKLIFLHRLKRMRKRLKRKLRFWHRKRYK [AG30-5C]
The Length of Lumina (Percentage when taking Control as 100) ([17]; Table 3): 119.1%
The Length of Lumina (Percentage when taking Control as 100) ([17]; Table 4): 165.7%
